The values that follow come from US8518956B2, “1-(1-(2-ethoxyethyl)-3-ethyl-7-(4-methylpyridin-2-ylamino)-1H-pyrazolo[4,3-d]pyrimidin-5-yl) piperidine-4-carboxylic acid and salts thereof” (priority 2005, dated 2013).

Format in all cases: biochemical
The target in one test is PDE6 enzyme. The test is described as follows: Method 2A: Alternative Human Retina PDE6 Enzyme Inhibition Scintillation Proximity Assay (SPA). The following applies: Table F, WO2004096810 examples.
The target in test [1] is T1, PDE11 enzyme (Homo sapiens, UniProt Q9HCR9, DUP921-921).
T1 construct: FLAG (N); made in house; host or cells: Sf9 insect cells (baculovirus, pFastBac)
T1 sequence (Q9HCR9 with tags, fused parts or gaps DUP921-921 limits assumed): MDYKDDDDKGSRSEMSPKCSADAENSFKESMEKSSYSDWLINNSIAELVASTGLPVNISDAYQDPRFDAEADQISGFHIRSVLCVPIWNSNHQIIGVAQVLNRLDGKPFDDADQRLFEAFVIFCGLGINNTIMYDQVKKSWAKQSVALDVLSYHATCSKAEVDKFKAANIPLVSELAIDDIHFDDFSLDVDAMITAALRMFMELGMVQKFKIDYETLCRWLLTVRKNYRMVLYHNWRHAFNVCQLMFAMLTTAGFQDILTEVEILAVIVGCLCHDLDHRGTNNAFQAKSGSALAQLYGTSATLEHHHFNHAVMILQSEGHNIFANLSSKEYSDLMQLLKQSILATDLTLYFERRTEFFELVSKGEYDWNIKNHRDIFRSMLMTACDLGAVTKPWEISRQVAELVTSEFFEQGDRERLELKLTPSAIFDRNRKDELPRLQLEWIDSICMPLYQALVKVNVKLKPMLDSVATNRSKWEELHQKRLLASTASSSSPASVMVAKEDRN
Briefly: Method 3: Human Recombinant PDE11 Enzyme Inhibition Scintillation Proximity Assay (SPA). The conditions noted are these: Table F, WO2004096810 examples; read-out: METHOD 3: PDE11 IC50. As to the method: Method 3: Human Recombinant PDE11 Enzyme Inhibition Scintillation Proximity Assay (SPA)
PDE11 Expression and Purification:
(§1) Incubate at 27° C. with 220 rpm shaking for 48 hours. Harvest the infected cells by pelleting at 2000 rpm for 10 minutes at 4° C. Store the infected cell pellet at −80° C. until ready for purification. Resuspend the thawed cell pellets to 1×10^7 cells/ml (=20 ml buffer consisting of 20 mM Hepes (pH7.2), 1 mM EDTA, 20 mM sucrose, 150 mM NaCl and protease inhibitor tablets). Mix thoroughly and allow to stand on ice for 10 minutes. Sonicate for 5×5 seconds, on ice. Spin the mixture at 12,000 rpm for 10 minutes at 4° C. in SS34. Store the insoluble pellet at −80° C., and proceed to the purification of the soluble material. • (b) Purification: Prepare the column (1.0 cm diameter, Kontes) by rinsing the empty column twice with TBS. Then mix beads (Anti-FLAG M2 Agarose, Sigma) with TBS and add to the column—allow the beads to settle. Wash the column with 3 column volumes of 0.1M glycine (pH3.5). […] Apply the extract to the column and allow the extract to enter by gravity flow. Reapply the flow-through. Wash the column with 15 column volumes of TBS. Elute the protein with 5×1 ml aliquots of FLAG peptide (Sigma) (i.e., 100 ug/ml in TBS). Elute the remaining protein with 1 ml 0.1M glycine, and immediately add 25 ul 1M Tris pH8 to neutralize. Method 3A: Alternative Human Recombinant PDE11 Enzyme Inhibition Scintillation Proximity Assay (SPA)
Background: In a scintillation proximity assay essentially only radioactivity close to the scintillant gives light.

A further test deals with T2, PDE5 enzyme (Homo sapiens, UniProt O76074).
T2 construct: The PDE5 enzyme isolated from human platelets; from tissue; host or cells: human platelets
The test is described as follows: Method 1A: Alternative Human Platelet PDE5 Enzyme Inhibition Scintillation Proximity Assay. The conditions noted are these: METHOD 1a: PDE5 IC50, Table D, WO2004096810 examples. On the procedure: Method 1A: Alternative Human Platelet PDE5 Enzyme Inhibition Scintillation Proximity Assay
PDE5 IC50 Assay: 96-Well Microtiter Plate Format
• Buffer A: 20 mM Tris-HCl, 5 mM MgCl2, pH 7.4 • Buffer B: 2 mg/ml BSA in Buffer A (enzyme buffer) • cGMP substrate: Final concentration of 50 nM in assay The amount of ^3H-labeled substrate added depends upon the specific activity of [^3H]cGMP, and it is diluted in Buffer A. • PDE enzyme: Prepared in Buffer B. The dilution factor is determined by enzyme activity. • SPA beads: 4 mg/ml suspension prepared in dH2O.
Stocks of standard and test compound are prepared at 2 mM in 100% DMSO. […] 27 μl of Buffer A are added to the wells of the assay plates. From the dilution plate, 3 μl of diluted compound is delivered in duplicate or 3 μl of 100% DMSO (for positive and negative controls) are added. 30 μl of enzyme are added. For the negative control wells, Buffer B is substituted in place of the enzyme. 30 μl of labeled substrate are added to all wells.
After incubating for 60 minutes at room temperature, the reaction is stopped with the addition of 30 μl of the yttrium silicate beads. These beads are dense and require constant agitation while being added to the plate. The plates are sealed and shaken on a plate shaker for fifteen minutes to allow the beads to bind the GMP product.
After allowing the beads to settle for 30 minutes, plates are read on a NXT TopCount scintillation counter and the data are analyzed as follows. Percent inhibition values are calculated using the means of the 0% and 100% controls on each plate. The estimates of the 4-parameters of the logistic, sigmoid dose-response model are then calculated using the well-level percent inhibition value for the compound.

Test [2] has as its target T1, PDE11 enzyme. Briefly: Method 3A: Alternative Human Recombinant PDE11 Enzyme Inhibition Scintillation Proximity Assay (SPA). The following applies: Table F, WO2004096810 examples. On the procedure: as §1

Protocol for PDE6 enzyme: Lift the retina with care and locate the optic nerve. Cut through the optic nerve and transfer the retina to a small dish containing a few ml of homogenisation buffer. Gently float the retina out on the surface of the buffer and remove any obvious pigmented material from the iris. Place the retina in a second dish with clean buffer to remove last traces of pigment and then transfer to a 50 ml Corning Costar centrifuge tube (Sigma) and keep on ice. • PDE6 Isolation and Purification from Retina: Allow 2 mls of the homogenisation buffer per bovine retina and 1 ml per retina for dog and human. Homogenise using hand-held homogeniser 3×5 second bursts cooling on ice between each burst. Filter homogenate through two layers of surgical gauze. Spin at 100,000 g for 60 minutes at 4° C. […] Run through FPLC (Pharmacia FPLC LKB/FRAC-100, Pharmacia) or aliquot and store in liquid nitrogen as needed. Method 2A: Alternative Human Retina PDE6 Enzyme Inhibition Scintillation Proximity Assay (SPA)
The inhibition of PDE6 enzyme activity by a test compound also can be measured in accordance with the in vitro assay of Method 1A, but instead using semi-purified PDE6 enzyme isolated from human, bovine or canine retina in place of PDE5 enzyme. […] [3H]GMP binds to yttrium silicate SPA beads and is detected by scintillation counting.

A word on the IC50: it is the concentration at which inhibition is half-maximal. For the compound `Cc1ccnc(Nc2nc(N3CCC(C(=O)O)CC3)nc3c(C)nn(CCOCC(F)(F)F)c23)c1` [WO2004096810 Example 261], the IC50 was 110 nM against PDE6 enzyme, 426 nM on PDE11 enzyme [1], 0.115 nM against PDE5 enzyme and 585 nM on PDE11 enzyme [2].

Take `Cc1cc(Nc2nc(N3CCC(C(=O)O)CC3)nc3c(C)nn(CCOCC(F)(F)F)c23)ncn1` [WO2004096810 Example 262]: the IC50 against PDE6 enzyme amounted to 66.3 nM; at PDE11 enzyme [1], 471 nM; at PDE5 enzyme it was 0.0755 nM; on PDE11 enzyme [2], 608 nM.

Consider `CCc1nn(CCOCC(F)(F)F)c2c(Nc3cc(C)ncn3)nc(N3CCC(C(=O)O)CC3)nc12` [WO2004096810 Example 263], for which the IC50 against PDE6 enzyme is 30.6 nM; on PDE11 enzyme [1], 316 nM; against PDE5 enzyme it was 0.0197 nM; at PDE11 enzyme [2], 384 nM.
